{
  "source": "paper PMC7367925",
  "about": "“The EU-ToxRisk method documentation, data processing and chemical testing pipeline for the regulatory use of new approach methods” (Archives of Toxicology, 2020)",
  "key": {"Progesterone receptor": {"target": "T1, Progesterone receptor (Homo sapiens, UniProt P06401)", "T1 construct": "host or cells: U-2 OS", "T1 sequence (P06401 1-933)": "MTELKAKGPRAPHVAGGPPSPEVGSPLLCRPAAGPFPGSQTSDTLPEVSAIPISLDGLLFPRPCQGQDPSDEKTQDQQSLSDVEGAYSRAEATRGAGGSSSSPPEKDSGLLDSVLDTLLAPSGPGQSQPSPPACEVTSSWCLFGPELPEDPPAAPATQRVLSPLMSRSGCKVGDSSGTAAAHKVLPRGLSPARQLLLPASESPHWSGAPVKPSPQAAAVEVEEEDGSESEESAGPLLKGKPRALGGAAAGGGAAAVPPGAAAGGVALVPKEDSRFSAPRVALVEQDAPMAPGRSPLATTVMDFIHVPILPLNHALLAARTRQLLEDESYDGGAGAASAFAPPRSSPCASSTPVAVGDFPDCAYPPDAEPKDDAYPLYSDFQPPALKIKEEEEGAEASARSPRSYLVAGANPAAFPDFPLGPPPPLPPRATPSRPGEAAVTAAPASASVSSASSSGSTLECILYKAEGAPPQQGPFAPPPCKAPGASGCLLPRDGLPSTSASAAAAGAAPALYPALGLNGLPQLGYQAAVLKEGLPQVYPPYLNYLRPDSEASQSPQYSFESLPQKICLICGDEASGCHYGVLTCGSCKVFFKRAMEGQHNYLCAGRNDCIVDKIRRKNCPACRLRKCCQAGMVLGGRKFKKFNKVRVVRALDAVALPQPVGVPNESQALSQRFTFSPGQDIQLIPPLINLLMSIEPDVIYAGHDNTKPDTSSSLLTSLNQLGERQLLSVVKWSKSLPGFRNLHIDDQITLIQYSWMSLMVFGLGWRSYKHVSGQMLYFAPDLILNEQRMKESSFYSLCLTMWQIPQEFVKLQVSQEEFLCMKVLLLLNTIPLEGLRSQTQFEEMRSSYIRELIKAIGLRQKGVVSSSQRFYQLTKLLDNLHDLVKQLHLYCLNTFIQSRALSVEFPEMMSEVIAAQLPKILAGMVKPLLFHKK", "experiment": "PR-anti CALUX", "assay_type": "cell-based", "conditions": "24 h exposure, lowest effect level PC20, reference agonist at EC50, means from 3 assay runs", "summary_of_the_method": "(§1)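 Reporter-gene CALUX assays with readout as fold induction over control, run in triplicate after 24 h cell seeding. Lowest-effect levels were PC10 or PC20 relative to the positive-control maximum (PC20 for antagonism), or the concentration giving 1.5-fold induction.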"}, "Estrogen receptor alpha": {"target": "T2, Estrogen receptor alpha (Homo sapiens, UniProt P03372)", "T2 construct": "host or cells: U-2 OS", "T2 sequence (P03372 whole entry)": "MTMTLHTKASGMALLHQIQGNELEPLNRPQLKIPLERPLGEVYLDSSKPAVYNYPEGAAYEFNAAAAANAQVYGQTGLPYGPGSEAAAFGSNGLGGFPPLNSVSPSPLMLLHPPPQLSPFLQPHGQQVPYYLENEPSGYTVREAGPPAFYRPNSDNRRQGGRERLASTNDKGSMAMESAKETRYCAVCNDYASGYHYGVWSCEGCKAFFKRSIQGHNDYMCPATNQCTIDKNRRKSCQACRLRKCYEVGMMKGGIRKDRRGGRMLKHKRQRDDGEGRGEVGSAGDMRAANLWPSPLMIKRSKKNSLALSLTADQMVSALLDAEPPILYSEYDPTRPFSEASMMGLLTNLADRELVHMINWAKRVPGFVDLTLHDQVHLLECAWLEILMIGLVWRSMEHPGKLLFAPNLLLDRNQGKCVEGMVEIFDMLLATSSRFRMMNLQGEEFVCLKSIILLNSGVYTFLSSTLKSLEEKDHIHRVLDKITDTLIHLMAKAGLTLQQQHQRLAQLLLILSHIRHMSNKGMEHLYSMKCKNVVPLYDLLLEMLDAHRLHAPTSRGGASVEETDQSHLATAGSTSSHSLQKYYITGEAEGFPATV", "experiment": "ERa-anti CALUX", "assay_type": "cell-based", "conditions": "24 h exposure, lowest effect level PC20, reference agonist at EC50, means from 3 assay runs", "description": "(§2) After 24 h, exposure medium was prepared. […] All samples were tested in triplicates. […] Fig. SM_4. […] Fig. SM_4.\nCell line Endpoint effect Reference compound […]\nERa-anti CALUX Estrogen receptor antagonists PC20 tamoxifen […]\nCytotox CALUX Cytoxicity PC20 tributyltinacetate\n(§3) Supplementary Material SM_4\n(§4) Overview of CALUX assays.\n(§5) This is defined as the concentration of test compound […]\n(§6) for an antagonist assay is a PC20.\n(§7) PC = positive control. FI = fold induction. PC10: concentration where test compound causes an activation equal to 10% of the maximum effect (positive control). PC20: concentration where test compound causes […]\n(§8) FI=1.5: concentration where test\n(§9) (A) exemplary graph of concentration- […]\n(§10) receptor antagonism assay with PC20 as lowest-effect-level. (C) exemplary graph for assay with 1.5 fold inductionas lowest effect level. 9"}, "Androgen receptor": {"target": "T3, Androgen receptor (Homo sapiens, UniProt P10275)", "T3 construct": "host or cells: U-2 OS", "T3 sequence (P10275 1-920)": "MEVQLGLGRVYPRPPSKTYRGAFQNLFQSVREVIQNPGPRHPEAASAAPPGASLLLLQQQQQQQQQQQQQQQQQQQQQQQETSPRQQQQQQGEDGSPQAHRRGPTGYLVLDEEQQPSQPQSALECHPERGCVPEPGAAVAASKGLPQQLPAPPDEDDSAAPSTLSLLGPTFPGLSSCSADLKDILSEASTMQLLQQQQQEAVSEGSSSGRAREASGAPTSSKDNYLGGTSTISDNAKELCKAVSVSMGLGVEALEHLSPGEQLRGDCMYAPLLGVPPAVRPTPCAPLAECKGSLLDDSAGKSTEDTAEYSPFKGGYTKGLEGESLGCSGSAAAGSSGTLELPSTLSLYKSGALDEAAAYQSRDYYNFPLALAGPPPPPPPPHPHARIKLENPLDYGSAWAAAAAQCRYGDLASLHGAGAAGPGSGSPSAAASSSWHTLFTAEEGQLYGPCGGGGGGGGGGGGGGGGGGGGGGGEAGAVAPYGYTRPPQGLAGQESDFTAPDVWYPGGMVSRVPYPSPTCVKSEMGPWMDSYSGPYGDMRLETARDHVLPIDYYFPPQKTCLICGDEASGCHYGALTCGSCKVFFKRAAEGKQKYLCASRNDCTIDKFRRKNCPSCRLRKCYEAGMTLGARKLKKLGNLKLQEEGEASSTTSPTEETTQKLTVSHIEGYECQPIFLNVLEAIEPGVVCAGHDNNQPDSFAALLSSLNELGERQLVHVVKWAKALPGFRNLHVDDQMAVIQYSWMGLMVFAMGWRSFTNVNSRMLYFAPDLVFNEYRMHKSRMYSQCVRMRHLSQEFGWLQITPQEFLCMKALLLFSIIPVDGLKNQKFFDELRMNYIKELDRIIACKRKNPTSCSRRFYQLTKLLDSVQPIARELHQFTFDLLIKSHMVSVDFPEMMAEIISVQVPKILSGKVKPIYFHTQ", "assay_type": "cell-based", "conditions": "24 h exposure, lowest effect level PC20, reference agonist at EC50, means from 3 assay runs", "description": "as §2, §3, §4, §5, §6, §7, §8, §9, §10"}, "[1]": {"test_system": "U-2 OS reporter cell lines battery", "experiment": "CALUX reporter gene assay battery as a whole", "conditions": "all CALUX assays, 13 concentrations, 24 h exposure", "method": "CALUX® assay procedure: Testing was performed in non-blinded fashion. […] In brief, the assay was performed in assay medium, consisting of DMEM without phenol red indicator (Gibco) supplemented with 5% charcoal-stripped fetal calf serum (DCC), 1 × non-essential amino acids (Gibco) and 10 U/ml penicillin and 10 µg/ml streptomycin. A cell suspension in assay medium was made of 1 × 10^5 cells/ml, and white 384-wells plates were seeded with 30 µl cell suspension/well. After 24 h, exposure medium was prepared. A dilution series in 0.5 log unit increments of each test compound (in DMSO) was added to a 96-wells plate containing assay medium. Of this exposure mixture, 30 µl was added to the assay plates containing the CALUX® cells, resulting in a final DMSO concentration of 0.1%. Additionally, DMSO blanks and a full dose response curve of the reference compounds were included on each plate. All samples were tested in triplicates. The preparation of the compound dilution series as well as the exposure of the cells were performed on a Hamilton Starlet liquid handling robot coupled to a Cytomat incubator. […] Subsequently, the luciferase signal was measured in a luminometer (InfinitePro coupled to a Connect Stacker, both TECAN). To be able to detect receptor antagonism, the assays were also performed in antagonistic mode using the receptor cell lines. The assay procedure was as described above, with the only exception that the reference agonists were present during the exposure at a concentration corresponding to their EC50.\nERa CALUX Estrogen receptor agonists PC10 estradiol\nAR CALUX Androgen receptor agonists PC10 dihydrotestosterone(DHT)\nAR-anti CALUX Androgen receptor antagonists PC20 flutamide\nPR CALUX Progesterone receptor agonists PC10 Org2058\nPR-anti CALUX Progesterone receptor antagonists PC20 Ru486\nGR CALUX Glucocorticoid receptor agonists PC10 dexamethasone (DEX)\nGR-anti CALUX Glucocorticoid receptor antagonists PC20 Ru486\nTRb CALUX Thyroid receptor agonists PC10 3,3‘5-trioiodo-L-thyronine (T3)\nTRb-anti CALUX Thyroid receptor antagonists PC20 deoxynivalenol\nRAR CALUX Retinoic acid receptor agonists PC10 retinoic acid\nLXR CALUX Liver X receptor agonists PC10 GW3965 hydrochloride\nPXR CALUX Pregnane X receptor agonists PC10 nicardipine\nPPARa CALUX Peroxisomeproliferator activated receptor agonists PC10 GW7647 PPARg2 CALUX Peroxisome proliferator activated receptor agonists PC10 rosiglitazone\nDR CALUX / AhR Aryl Hydrocarbon receptor agonists PC10 2,3,7,8-TCDD\nHif1a CALUX Chemical hypoxia response PC10 cobaltous(II)chloride\nTCF CALUX wnt/TCF pathway activation FI=1.5 lithium chloride\nAP-1 CALUX AP1 pathway activation / cell cycle control PC10 TPA (PMA)\nESRE CALUX Endoplasmic reticulum stress PC10 tunicamycin\nNFkB CALUX Activation of NF-kB pathway (immune response) PC10 TPA (PMA)\nNrf2 CALUX Oxidative stress FI=1.5 curcumine\np21 CALUX Transcription of p21 inhibitor of cell cycle progression PC10 actinomycin D\np53 CALUX p53-dependent pathway activation / genotoxicity FI=1.5 actinomycin D\nThe point od departure (PoD) if all these assays is defined by a “lowest effect level”.\nA typical endpoint for an agonist assay is a PC10. This is defined as the concentration of test compound\ngiving a signal level that corresponds to 10% of the difference of the baseline (no agonist) and the maximal"}, "Pregnane X receptor": {"target": "T4, Pregnane X receptor (Homo sapiens, UniProt O75469)", "T4 construct": "host or cells: U-2 OS", "T4 sequence (O75469 1-434)": "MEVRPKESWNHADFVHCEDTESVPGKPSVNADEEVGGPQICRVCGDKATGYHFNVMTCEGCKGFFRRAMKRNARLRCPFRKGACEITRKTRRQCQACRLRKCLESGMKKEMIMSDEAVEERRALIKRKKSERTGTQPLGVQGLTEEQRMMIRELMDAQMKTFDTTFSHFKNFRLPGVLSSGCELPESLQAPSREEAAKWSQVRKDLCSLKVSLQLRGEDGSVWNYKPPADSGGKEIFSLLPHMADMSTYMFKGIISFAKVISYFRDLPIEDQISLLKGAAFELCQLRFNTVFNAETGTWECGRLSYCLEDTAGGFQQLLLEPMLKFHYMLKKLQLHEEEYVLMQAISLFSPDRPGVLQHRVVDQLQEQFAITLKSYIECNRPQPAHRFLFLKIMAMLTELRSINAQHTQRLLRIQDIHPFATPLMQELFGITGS", "experiment": "PXR CALUX", "assay_type": "cell-based", "conditions": "24 h exposure, lowest effect level PC10, means from 3 assay runs", "summary_of_the_method": "as §1"}, "[2]": {"design": "method as in Nyffeler et al. 2018", "conditions": "cell culture plastic; ref Nyffeler et al. 2018; cited from earlier work"}},
  "data": [
    {"molecule": "Clc1cc(Cl)c(-c2cc(Cl)c(Cl)c(Cl)c2Cl)cc1Cl", "note": "[PCB180, polychlorinated biphenyl 180]", "values": [
      {"measurement": "PoD PR - anta", "setting": "Progesterone receptor", "result": "6.3 -log(M)"},
      {"measurement": "PoD Erα - anta", "setting": "Estrogen receptor alpha", "result": "6.0 -log(M)"},
      {"measurement": "PoD AR - anta", "setting": "Androgen receptor", "result": "6.1 -log(M)"},
      {"measurement": "response profile over the CALUX battery (in words)", "setting": "[1]", "result": "only activated nuclear hormone receptor related assays"},
      {"measurement": "PoD PXR - ago", "setting": "Pregnane X receptor", "result": "5.5 -log(M)"},
      {"measurement": "fraction of the compound bound to plastic", "setting": "[2]", "result": "about one third"}
    ]}
  ]
}
